Measured values published in patent US10881642B2, “Autophagy enhancer and use thereof” (Industry-Academic Cooperation Foundation, Yonsei University, priority 2016, dated 2021).
Peptide text beside a SMILES is read from it. * marks the point of attachment. βNA = c1ccc2cc(N*)ccc2c1

Tested on: HeLa cells
Experiment: GCaMP3-ML1 lysosomal Ca2+ release imaging
Assay type: cell-based
Settings: GPN 200 μM; ionomycin 1 μM
Description: HeLa cells were transfected with perilysosomal GCaMP3-ML1 calcium probe, and Ratiometric image (474 and 410 nm excitation) was obtained.
GCaMP3 Ca2+ Imaging. HeLa cells were grown on 15 mm coverslips and transfected with plasmid encoding the perilysosomal-localized ML1-GCaMP3 calcium probes.

Row | SMILES | lysosomal Ca2+ release
1 | NCC(=O)N[C@@H](Cc1ccccc1)C(=O)Nc1ccc2ccccc2c1 [GPN] (H-Gly-Phe-βNA) | induced lysosomal Ca2+ release
2 | C[C@H](CCC(=O)O)C[C@H](C)C[C@H](C)C(=O)/C=C(\O)[C@H](C)C[C@H](C)C/C=C/[C@@H](C)[C@@H](O)[C@@H](C)[C@@H](O)C[C@@H]1CC[C@@](C)([C@H]2CC[C@@](C)([C@@H](C)O)O2)O1 [ionomycin] | induced lysosomal Ca2+ release
